Results taken from PubChem BioAssay (NCI).
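The compound was tested at five concentrations on cells cultured in 96-well plates, with a 48-hour exposure period. TGI denotes the concentration required for complete inhibition of growth.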

Columns and labels:
Experiment in all cases: growth of human tumour cells (NCI), 48 h
CCRF-CEM leukemia = tested on: CCRF-CEM leukemia
COLO 205 colon = tested on: COLO 205 colon
DU-145 prostate = tested on: DU-145 prostate
HS 578T breast = tested on: HS 578T breast
K-562 leukemia = tested on: K-562 leukemia
MDA-MB-231 breast = tested on: MDA-MB-231 breast
NCI-H23 lung = tested on: NCI-H23 lung
OVCAR-3 ovarian = tested on: OVCAR-3 ovarian
SF-295 CNS = tested on: SF-295 CNS
SNB-19 CNS = tested on: SNB-19 CNS
A498 renal = tested on: A498 renal
HOP-92 NSCLC = tested on: HOP-92 NSCLC

Compound	TGI (CCRF-CEM leukemia)	TGI (COLO 205 colon)	TGI (DU-145 prostate)	TGI (HS 578T breast)	TGI (K-562 leukemia)	TGI (MDA-MB-231 breast)	TGI (NCI-H23 lung)	TGI (OVCAR-3 ovarian)	TGI (SF-295 CNS)	TGI (SNB-19 CNS)	TGI (A498 renal)	TGI (HOP-92 NSCLC)
ClC1(Cl)C2CCOC21n1cnc2ccccc21 (stereo unspecified)	> 100 µM	> 100 µM	> 100 µM	> 100 µM	> 100 µM	> 100 µM	> 100 µM	> 100 µM	> 100 µM	> 100 µM	–	–
CN=C(NC#N)NCc1ccccc1	> 100 µM	> 100 µM	–	–	–	–	> 100 µM	> 100 µM	> 100 µM	> 100 µM	> 100 µM	> 100 µM
NC(=O)NC(=O)c1cccc(C(=O)NC(N)=O)n1	> 100 µM	–	> 100 µM	–	> 100 µM	> 100 µM	> 100 µM	> 100 µM	> 100 µM	> 100 µM	> 100 µM	> 100 µM
O=C(CCCN1CCC(Nc2ccc(F)cc2)(c2nnnn2C2CCCCC2)CC1)c1ccc(F)cc1	> 100 µM	37.1 µM	28.4 µM	46.3 µM	> 100 µM	36 µM	29 µM	31.8 µM	40.9 µM	36 µM	12.5 µM	–
CCN(CC)C(=O)N1CN(c2ccccc2)C2(CCN(CCCC3(c4ccc(F)cc4)OCCO3)CC2)C1=O	45.9 µM	15.2 µM	38.3 µM	37.4 µM	–	–	36.6 µM	31.5 µM	41.3 µM	89.7 µM	–	–
O=c1ccc2c(Cl)sc(Cl)c2[nH]1	> 100 µM	–	> 100 µM	> 100 µM	> 100 µM	> 100 µM	> 100 µM	> 100 µM	> 100 µM	> 100 µM	–	–
COc1cc(C2C(Cl)C(=O)N2NC(=O)c2ccccc2O)cc(OC)c1OC (stereo unspecified)	> 10 µM	–	1.91 µM	> 10 µM	> 10 µM	–	9.95 µM	> 10 µM	8.43 µM	> 10 µM	–	> 10 µM
COc1ccc(-c2nc3ccccc3c(=O)[nH]2)cc1OC	> 100 µM	> 100 µM	> 100 µM	83.1 µM	> 100 µM	77 µM	> 100 µM	> 100 µM	> 100 µM	79 µM	–	–
COc1cc2oc(=O)cc(C)c2c(OC)c1OC	> 100 µM	> 100 µM	> 100 µM	> 100 µM	> 100 µM	> 100 µM	> 100 µM	> 100 µM	> 100 µM	> 100 µM	96.8 µM	–
COc1ccccc1N1C(=O)/C(=C\c2ccccc2)SC1c1cc(OC)c(OC)c(OC)c1 (stereo unspecified)	–	> 100 µM	–	> 100 µM	> 100 µM	71.3 µM	> 100 µM	–	> 100 µM	> 100 µM	> 100 µM	> 100 µM
COc1ccc([C@H]2C=C(c3cc(F)c(Cl)cc3Cl)N=c3s/c(=C\c4ccc(-c5ccc(Cl)cc5Cl)o4)c(=O)n32)cc1	–	> 100 µM	> 100 µM	> 100 µM	> 100 µM	70.2 µM	> 100 µM	–	> 100 µM	> 100 µM	6.58 µM	> 100 µM
O=C(CN1CCOCC1)c1ccc2c(c1)oc(=O)n2CCN1CCCCC1	> 100 µM	> 100 µM	> 100 µM	> 100 µM	> 100 µM	> 100 µM	> 100 µM	> 100 µM	> 100 µM	> 100 µM	> 100 µM	–
C[C@H](N)C(=O)Nc1ccc(-c2nc3ccccc3s2)cc1Cl	29.3 µM	26.4 µM	32.1 µM	49.7 µM	36.8 µM	–	39.2 µM	19.2 µM	33.9 µM	30.4 µM	–	> 100 µM
CSc1nnc2n1-c1ccccc1SCC2	> 100 µM	> 100 µM	–	–	> 100 µM	–	> 100 µM	> 100 µM	> 100 µM	> 100 µM	> 100 µM	> 100 µM
O=C(O)Cc1ccc(-n2nnc3c(=O)[nH][nH]c(=O)c32)cc1	> 100 µM	> 100 µM	> 100 µM	–	> 100 µM	> 100 µM	> 100 µM	> 100 µM	> 100 µM	> 100 µM	–	> 100 µM
COc1ccc(-c2cc(-c3ccncc3)nc(N)c2-c2ccc(F)cc2)cc1	> 100 µM	97.3 µM	–	> 100 µM	> 100 µM	> 100 µM	> 100 µM	> 100 µM	> 100 µM	> 100 µM	> 100 µM	> 100 µM
O=CN/C=C\c1cc(O)ccc1O	> 100 µM	29.5 µM	–	–	> 100 µM	–	> 56.1 µM	25 µM	> 100 µM	> 100 µM	> 100 µM	28 µM
CSc1c(C#N)c(=O)n(N)c2n[nH]c(C)c12	> 100 µM	> 100 µM	> 100 µM	> 100 µM	> 100 µM	> 100 µM	> 100 µM	–	–	> 100 µM	> 100 µM	–
CSc1cc(Cl)c(C)cc1S(=O)(=O)NC(=O)NNc1cnc2ccccc2n1	> 100 µM	> 100 µM	> 100 µM	> 100 µM	> 100 µM	> 100 µM	–	> 100 µM	> 100 µM	> 100 µM	> 100 µM	–
NCCCCNCCCNC(=O)c1csc(-c2nc(CCN)sc2Cl)n1	> 100 µM	> 100 µM	> 100 µM	> 100 µM	> 100 µM	–	> 100 µM	> 100 µM	> 100 µM	> 100 µM	> 100 µM	79.5 µM
O=c1[nH]nc(-c2ccccc2)c2[nH]c3c(c12)CCCc1ccccc1-3	47.2 µM	22.2 µM	57.8 µM	38.7 µM	94.8 µM	52.4 µM	> 100 µM	66.3 µM	57.5 µM	26.8 µM	–	54.8 µM
